The record followed here is ChEMBL document CHEMBL3352105, “Design, synthesis and SAR analysis of antitumour styryl lactones related to (+)-crassalactones B and C” (Eur J Med Chem, 2014).

For orientation: IC50 means the concentration needed to halve the response being measured. A lower IC50 goes with greater potency in that assay.

The nature of assay [1]: Cytotoxicity against human HL60 cells after 72 hrs by MTT assay. It is filed as functional, cell-based. To be noted: HL-60, 72 h.
The subject of assay [2] is Raji. Kind of assay: Cytotoxicity against human Raji cells after 72 hrs by MTT assay. The assay is classed as functional, cell-based. A general note: Formazan colour is commonly taken as a measure of viable cells.
For assay [3], the system named is MCF7. Put plainly: Cytotoxicity against human MCF7 cells after 72 hrs by MTT assay. Particulars: MCF7, 72 h. It is filed as functional, cell-based.
Assay [4] concerns Jurkat. Kind of assay: Cytotoxicity against human Jurkat cells after 72 hrs by MTT assay. It is filed as functional, cell-based.
Assay [5] relates to MRC5. Kind of assay: Cytotoxicity against human MRC5 cells after 72 hrs by MTT assay. It is filed as cell-based. To be noted: MRC5, 72 h.
Assay [6] has as its system MDA-MB-231. Kind of assay: Cytotoxicity against human MDA-MB-231 cells after 72 hrs by MTT assay. To be noted: MDA-MB-231, 72 h. It is filed as functional, cell-based.
Assay [7] has as its system K562. Kind of assay: Cytotoxicity against human K562 cells after 72 hrs by MTT assay. It is filed as functional, cell-based. To be noted: K562, 72 h.
The test system of assay [8] is HeLa. Put plainly: Cytotoxicity against human HeLa cells after 72 hrs by MTT assay. It is filed as functional, cell-based.
Assay [9] relates to HL-60. Kind of assay: Potency index, ratio of IC50 for doxorubicin to IC50 for test compound against human HL60 cells after 72 hrs by MTT assay. It is filed as functional.
The subject of assay [10] is Raji. Kind of assay: Potency index, ratio of IC50 for doxorubicin to IC50 for test compound against human Raji cells after 72 hrs by MTT assay. The assay is classed as functional.

On to `COc1ccc(/C=C/C(=O)O[C@@H]2[C@H]3OC(=O)C[C@H]3O[C@@H]2[C@H](O)c2ccccc2)cc1`, for which the IC50 in assay [1] is 50.2 µM; in assay [2] it was 5.69 µM; in [3] it was 11.1 µM; in assay [4] it was 13.4 µM; in assay [5], more than 100 µM; in assay [6], more than 100 µM. Moreover, the IC50 in assay [7] is 4.21 µM; in assay [8], 18.6 µM.
Regarding `O=C(/C=C/c1ccc([N+](=O)[O-])cc1)O[C@@H]1[C@H]2OC(=O)C[C@H]2O[C@@H]1[C@H](O)c1ccccc1`, the half-inhibitory concentration (IC50) in assay [1] is 48.2 µM; in assay [2], 8.23 µM; in [3], more than 100 µM; in assay [4] it was 44.7 µM; in assay [5], more than 100 µM; in assay [6], 5.36 µM. In addition, the 50% inhibitory concentration (IC50) in assay [7] worked out at 14.6 µM; in assay [8] it was 21.4 µM.
As for `O=C(/C=C/c1ccc(F)cc1)O[C@@H]1[C@H]2OC(=O)C[C@H]2O[C@@H]1[C@H](O)c1ccccc1`, the IC50 is 11.5 µM in [1]; 11.1 µM in [2]; 14.9 µM in assay [3]; 17.6 µM in [4]; more than 100 µM in assay [5]; 25.7 µM in assay [6]. The half-inhibitory concentration (IC50) in assay [7] is 10.2 µM; in assay [8] it was 29.9 µM.
`COc1ccc(/C=C/C(=O)O[C@H](c2ccccc2)[C@H]2O[C@@H]3CC(=O)O[C@@H]3[C@H]2O)cc1`: the IC50 in assay [1] is 41.4 µM; in assay [2] it was 4.37 µM; in assay [3], 12.3 µM; in [4], 42.3 µM; in [5], more than 100 µM; in assay [6], more than 100 µM. Moreover, the IC50 in assay [7] amounted to 3.25 µM; in assay [8], 24.9 µM.
Regarding `O=C(/C=C/c1ccc([N+](=O)[O-])cc1)O[C@H](c1ccccc1)[C@H]1O[C@@H]2CC(=O)O[C@@H]2[C@H]1O`, the 50% inhibitory concentration (IC50) in [1] was 14.3 µM; in assay [2], 16.4 µM; in assay [3], 5.23 µM; in assay [4], 10.5 µM; in assay [5], more than 100 µM; in assay [6], 33.4 µM. Also, the IC50 in assay [7] was determined as 2.25 µM; in assay [8], 35.7 µM.
For the molecule `O=C(/C=C/c1ccc(F)cc1)O[C@H](c1ccccc1)[C@H]1O[C@@H]2CC(=O)O[C@@H]2[C@H]1O`, the half-inhibitory concentration (IC50) was 9.45 µM in [1]; 14.5 µM in assay [2]; 18.7 µM in [3]; 18.1 µM in assay [4]; more than 100 µM in assay [5]; 29.6 µM in assay [6]. For the same molecule, the half-inhibitory concentration (IC50) in assay [7] amounted to 4.58 µM; in assay [8], 24.1 µM.
With `O=C(/C=C/c1ccccc1)O[C@@H]1[C@H]2OC(=O)C[C@H]2O[C@@H]1[C@@H](O)c1ccccc1`, the “Ratio IC50” value in assay [9] is listed as 46. For the same molecule, the IC50 in [1] was 0.02 µM; in assay [2], 14.5 µM; in [3], 0.22 µM; in assay [4], 0.87 µM; in assay [5], more than 100 µM; in assay [6], 8.64 µM. The IC50 in assay [7] is 3.33 µM; in assay [8], 2.47 µM.
On to `COc1ccc(/C=C/C(=O)O[C@@H]2[C@H]3OC(=O)C[C@H]3O[C@@H]2[C@@H](O)c2ccccc2)cc1`, for which the IC50 is 0.11 µM in [1]; 2.34 µM in [2]; 20.2 µM in assay [3]; 1.12 µM in assay [4]; more than 100 µM in assay [5]; 7.32 µM in assay [6]. Besides, the values for the IC50 in [7] and in assay [8] were 2.63 µM and 3.21 µM, respectively.
As for `O=C(/C=C/c1ccc([N+](=O)[O-])cc1)O[C@@H]1[C@H]2OC(=O)C[C@H]2O[C@@H]1[C@@H](O)c1ccccc1`, the IC50 in [1] was 0.36 µM; in assay [2] it was 1.02 µM; in [3], 56.2 µM; in assay [4] it was 3.52 µM; in assay [5], more than 100 µM; in [6] it was 2.64 µM. The concentration for half-maximal inhibition (IC50) in [7] worked out at 1.12 µM; in assay [8], 1.66 µM. Also, in [10], the “Ratio IC50” value turned out to be 3.
In the case of `O=C(/C=C/c1ccc(F)cc1)O[C@@H]1[C@H]2OC(=O)C[C@H]2O[C@@H]1[C@@H](O)c1ccccc1`, the IC50 in assay [1] is 2.11 µM; in assay [2], 1.74 µM; in assay [3] it was 84.5 µM; in assay [4] it was 0.69 µM; in assay [5] it was more than 100 µM; in assay [6], 1.32 µM. The results for the IC50 in [7] and in assay [8] were 0.85 µM and 4.12 µM, respectively.
`O=C(/C=C/c1ccccc1)O[C@@H](c1ccccc1)[C@H]1O[C@@H]2CC(=O)O[C@@H]2[C@H]1O`: the IC50 in assay [1] is 1.34 µM; in [2], 1.31 µM; in assay [3] it was 9.47 µM; in [4] it was 1.03 µM; in assay [5], more than 100 µM; in assay [6] it was 3.37 µM. The concentration for half-maximal inhibition (IC50) in assay [7] came out at 2.01 µM; in [8], 0.69 µM.
`COc1ccc(/C=C/C(=O)O[C@@H](c2ccccc2)[C@H]2O[C@@H]3CC(=O)O[C@@H]3[C@H]2O)cc1`: the IC50 in assay [1] is 8.79 µM; in assay [2], 8.45 µM; in assay [3] it was 9.64 µM; in [4] it was 18.6 µM; in assay [5], more than 100 µM; in assay [6], 28.6 µM. The 50% inhibitory concentration (IC50) turned out to be 11.5 µM in [7] and 11 µM in assay [8].
For `O=C(/C=C/c1ccc([N+](=O)[O-])cc1)O[C@@H](c1ccccc1)[C@H]1O[C@@H]2CC(=O)O[C@@H]2[C@H]1O`, the concentration for half-maximal inhibition (IC50) was 10.5 µM in assay [1]; 4.36 µM in [2]; 4.15 µM in [3]; 24.6 µM in assay [4]; more than 100 µM in assay [5]; 64.2 µM in assay [6]. In addition, the IC50 is 14.2 µM in assay [7] and 4.01 µM in [8].
Turning to `O=C(/C=C/c1ccc(F)cc1)O[C@@H](c1ccccc1)[C@H]1O[C@@H]2CC(=O)O[C@@H]2[C@H]1O`, the IC50 was 11 µM in assay [1]; 12.7 µM in [2]; 5.36 µM in [3]; 19.6 µM in [4]; more than 100 µM in [5]; 31.6 µM in [6]. Also, the IC50 is 15.7 µM in assay [7] and 4.36 µM in assay [8].
With `O=C(/C=C/c1ccccc1)O[C@@H]1[C@H]2OC(=O)C[C@H]2O[C@@H]1[C@H](OC(=O)/C=C/c1ccccc1)c1ccccc1`, the IC50 was 3.33 µM in assay [1]; 11 µM in assay [2]; more than 100 µM in assay [3]; 2.65 µM in assay [4]; 48.6 µM in [5]; more than 100 µM in [6]. Further, the 50% inhibitory concentration (IC50) is 21.4 µM in assay [7] and 12.2 µM in assay [8].
For `O=C(/C=C/c1ccccc1)O[C@@H]1[C@H]2OC(=O)C[C@H]2O[C@@H]1[C@@H](OC(=O)/C=C/c1ccccc1)c1ccccc1`, the concentration for half-maximal inhibition (IC50) in [1] was 0.15 µM; in [2] it was 10.2 µM; in assay [3], 1.64 µM; in assay [4], 0.31 µM; in assay [5] it was more than 100 µM; in assay [6], 6.69 µM. Moreover, the IC50 in assay [7] stood at 2.15 µM; in [8], 1.45 µM.
On to `O=C(/C=C/c1ccccc1)OC1C2OC(=O)CC2O[C@@H]1Cc1ccccc1` (single isomer, unassigned), for which the IC50 in assay [1] is 2.21 µM; in assay [2], 0.88 µM; in [3], 58.6 µM; in [4], 0.29 µM; in assay [5], more than 100 µM; in [6], 4.32 µM. Also, the figures for the half-maximal inhibitory concentration (IC50) in assay [7] and in assay [8] were 4.67 µM and 1.25 µM, respectively.
As for `COc1ccc(/C=C/C(=O)OC2C3OC(=O)CC3O[C@@H]2Cc2ccccc2)cc1` (single isomer, unassigned), the half-inhibitory concentration (IC50) was 0.27 µM in [1]; 3.58 µM in assay [2]; 61 µM in assay [3]; 0.84 µM in assay [4]; more than 100 µM in [5]; 4.34 µM in assay [6]. The half-maximal inhibitory concentration (IC50) in assay [7] was determined as 1.02 µM; in assay [8], 0.94 µM.
For `O=C(/C=C/c1ccc([N+](=O)[O-])cc1)OC1C2OC(=O)CC2O[C@@H]1Cc1ccccc1` (single isomer, unassigned), the IC50 in assay [1] was 0.14 µM; in assay [2], 2.69 µM; in assay [3] it was 23.2 µM; in assay [4], 3.74 µM; in assay [5] it was more than 100 µM; in assay [6], 5.32 µM. In addition, the half-maximal inhibitory concentration (IC50) in [7] worked out at 0.98 µM; in assay [8], 0.87 µM.
Turning to `O=C(/C=C/c1ccc(F)cc1)OC1C2OC(=O)CC2O[C@@H]1Cc1ccccc1` (single isomer, unassigned), the IC50 in [1] is 1.02 µM; in assay [2], 1.52 µM; in assay [3] it was 29 µM; in assay [4] it was 2.63 µM; in [5] it was more than 100 µM; in assay [6], 8.22 µM. Further, the IC50 in assay [7] is 0.25 µM; in assay [8], 1.02 µM.
As for `O=C(/C=C/c1ccccc1)O[C@@H]1[C@H]([C@@H](O)c2ccccc2)O[C@H]2CC(=O)O[C@@H]12` [(+)-CRASSALACTONE B], the IC50 in [1] is 2.54 µM; in [2] it was 14.6 µM; in [3], 0.85 µM; in assay [4], 0.12 µM; in assay [5], more than 100 µM; in assay [6], 5.32 µM. Moreover, the IC50 in assay [7] was found to be 0.78 µM; in assay [8] it was 0.98 µM.
`O=C(/C=C/c1ccccc1)O[C@H](c1ccccc1)[C@H]1O[C@@H]2CC(=O)O[C@@H]2[C@H]1O` [(+)-CRASSALACTONE C]: the IC50 in assay [1] was more than 100 µM; in [3], 7.34 µM; in assay [5] it was more than 100 µM; in [6], 88 µM.
Turning to `COc1cccc2c1C(=O)c1c(O)c3c(c(O)c1C2=O)C[C@@](O)(C(=O)CO)C[C@@H]3O[C@H]1C[C@H](N)[C@H](O)[C@H](C)O1` [DOXORUBICIN], the IC50 in assay [1] came to 0.92 µM; in [8], 0.065 µM.
